EP4692094A1 (Beijing Konruns Pharmaceutical Co., Ltd., priority 2023, dated 2024)

Assays:
[1] = Assay for plasma protein binding rate (equilibrium dialysis), dog plasma; format: in vitro ADME; details: dialysis 6 h at 37 °C, read-out: Dog (Fu%)
Experimental: (§1) 1.1 Preparation of compounds: The compounds prepared in the examples were each dissolved in dimethylsulfoxide to give solutions at a concentration of 10 mmol/L. • 1) The example compounds were each diluted from 10 mmol/L stock solution to 0.2 mmol/L, i.e., 1 µL of the compound was added to 49 µL of DMSO; • 2) 3 µL of 0.2 mmol/L test compounds were added to 597 µL of blood plasma, and the mixtures were vortexed at 1000 rpm for 2 min; • 3) 50 µL of the plasma containing the drug in 2) was taken, 50 µL of PBS was added, and 300 µL of methanol internal standard* was added to serve as a sample T0; • 4) 120 µL of the plasma containing the drug in 2) was taken and added to one side of an HTD device membrane, and 120 µL of PBS was added to the other side of the membrane; a breathable film was covered, and the plasma and the residual sample in 2) were balanced at 37 °C (100 rpm and 5% CO2) for 6 h; • 5) 50 µL of the dialyzed plasma side sample was taken, 50 µL of PBS was added, and 300 µL of methanol internal standard* was added to serve as a sample P; • 6) 50 µL of the dialyzed PBS side sample was taken, 50 µL of blank plasma was added, and 300 µL of methanol internal standard* was added to serve as a sample B; • 7) 50 µL of the plasma containing the drug in 2) was taken, 50 µL of PBS was added, and 300 µL of methanol internal standard* was added to serve as a sample T6; • 8) All samples were vortexed, mixed homogeneously, and then centrifuged at 3220 g for 40 min at 4 °C; • 9) 100 µL of the supernatant and 100 µL of purified water were mixed homogenously for liquid chromatography-mass spectrometry.
(§2) An internal standard method was used, and the plasma protein binding rate, recovery rate, and residual percentage were calculated by using Excel according to the ratio of the peak area of the sample to the peak area of the internal standard. Free rate(%) = (RatioB)/(RatioP) × 100% [formula] Binding rate(%) = 100%−Free rate% [formula] Recovery rate(%) = (RatioB + RatioP)/(RatioT0) × 100% [formula] Remaining percentage(%) = (RatioT6)/(RatioT0) × 100% [formula]
(§3) RatioB: a ratio of the peak area of the test substance on the PBS side to the peak area of the internal standard; RatioP: a ratio of the peak area of the test substance on the plasma side to the peak area of the internal standard; RatioT6: a ratio of the peak area of the sample after incubation with the test substance for 6 h to the peak area of the internal standard; RatioT0: a ratio of the peak area of the sample after incubation with the test substance for 0 h to the peak area of the internal standard. Table 8. Plasma protein binding rate (Fu%) data for various species of example compounds

[2] = In-vivo pharmacokinetic study in rats; parameters: species or system SD female rats; details: female, SD, rat, plasma, po, intragastric administration, 5 mg/kg; for AUC(0-t): read-out: AUC0-24h
Experimental: 1.1 Instrument: high-performance liquid chromatograph: SHIMADZU LC-30AD; mass spectrum: AB SCIEX mass spectrometer Triple Quad 5500; all measured data were calculated and processed using Microsoft Excel, and relevant pharmacokinetic parameters were calculated using WinNonlin software. The main obtained kinetic parameters are Tmax, T1/2, Cmax, AUC0-24 h, and AUCinf. […] Sample injection amount: 1 µL.
1.2 Animals: three SD female rats were used. The body weight range was 180-300 g. After purchase, the rats were bred in the experimental animal center for two days for later use. The rats were fasted 12 h before administration and 4 h after administration, and given ad libitum access to water during the assay. Blood samples were taken at predetermined time points after intragastric administration.
1.3 Vehicle: 0.5% HPMC (hydroxypropyl methylcellulose) + 0.4% Tween80 + 99.1% water. Preparation of intragastric administration solution: The compound was precisely weighed, the vehicle was added, and then the drug was completely dissolved by ultrasonication at room temperature for 5 min and prepared into a 0.5 mg/mL solution. After the intragastric administration, blood samples were taken at 0.083 h, 0.25 h, 0.5 h, 1.0 h, 2.0 h, 4.0 h, 7.0 h, and 24 h. The blood collection mode is as follows: 0.2 mL of the jugular vein blood was collected, EDTA-K2 was used as an anticoagulation agent, the collected blood sample was transferred into a microcentrifuge tube containing the anticoagulation agent, and the tube was centrifuged at 4 °C and 4000 g for 5 min to separate the plasma. All plasma samples collected were stored at -75±15 °C until analysis.
The compound was precisely weighed and prepared into a standard curve working solution and a quality control working solution at different concentrations. The blank plasma was added and prepared into a plasma standard curve and a quality control sample. LC/MS/MS analysis was performed after pretreatment using a protein precipitation method, and then the concentration of the compounds described above in the plasma was measured. All measured data were collected and processed by the relevant software, and pharmacokinetic parameters were calculated using Winnonlin software. Table 9. Pharmacokinetic parameters of some compounds in the examples in rats

[3] = Assay for plasma protein binding rate (equilibrium dialysis), human plasma; format: in vitro ADME; details: dialysis 6 h at 37 °C, read-out: Human (Fu%)
Experimental: as §1, §2, §3

[4] = Assay for plasma protein binding rate (equilibrium dialysis), mouse plasma; format: in vitro ADME; details: dialysis 6 h at 37 °C, read-out: Mouse (Fu%)
Experimental: as §1, §2, §3

[5] = target: T1, KAT6A (Homo sapiens, UniProt Q92794); assay: Enzymatic activity assay for KAT6A acetyltransferase (TR-FRET, acetylation of histone substrate H3); format: biochemical
T1 construct: purchased active motife (Active Motif) 81223
Outline: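 TR-FRET detection of biotinylated H3 acetylation by KAT6A with acetyl-CoA; compounds in 10-point 3-fold dilution (0.5% DMSO final) preincubated with enzyme 10 min at 25 °C, then 90 min reaction and 60 min Eu-antibody/ULight-SA detection at 25 °C. HTRF 665/615 ratio normalised to DMSO (0%) and top-dose control (100%); IC50 by nonlinear fit.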

[6] = Assay for plasma protein binding rate (equilibrium dialysis), rat plasma; format: in vitro ADME; details: dialysis 6 h at 37 °C, read-out: Rat (Fu%)
Experimental: as §1, §2, §3

[7] = tested on: human breast cancer cell line ZR-75-1; assay: Assay for cell growth inhibitory activity (3D hydrogel culture, CCK-8); format: cell-based; details: 96 h; for viability at 0.0001 µM: ZR-75-1, 0.1 nM, read-out: Cell survival rate at example drug concentration 0.1 nM; for viability at 0.001 µM: ZR-75-1, 1 nM, read-out: Cell survival rate at example drug concentration 1 nM; for viability at 0.01 µM: ZR-75-1, 10 nM, read-out: Cell survival rate at example drug concentration 10 nM; for viability at 0.1 µM: ZR-75-1, 100 nM, read-out: Cell survival rate at example drug concentration 100 nM; for viability at 1 µM: ZR-75-1, 1000 nM, read-out: Cell survival rate at example drug concentration 1000 nM
Experimental: The human breast cancer cell line ZR-75-1 (1 × 10^^6 cells per cell culture dish with 100-mm diameter) was cultured in a 1640 culture medium, and 1% double antibiotics (streptomycin and penicillin), 10% fetal bovine serum (FBS), and 1% glutamine (Glumax) were added simultaneously. The cell culture dish was placed at 37 °C with 5% CO2 for 2 days for culture until the cell confluence reached 80%-90% to give cells in the logarithmic growth phase.
• 1) The example compounds were each dissolved in dimethylsulfoxide to give solutions at a concentration of 10 mmol/L, and the solutions were diluted to 250 µmol/L in 10-fold gradient for 5 concentrations, i.e., 0.2 nmol/L, 2 nmol/L, 20 nmol/L, 200 nmol/L, and 2000 nmol/L. • 2) Blank control wells were prepared by adding 0.1% dimethylsulfoxide to the cultured cells, and were used as high-reading control wells; cell-free 3D hydrogel was used as background wells. • 3) The cultured cells were separately added to the compounds in the examples at 0.2 nmol/L, 2 nmol/L, 20 nmol/L, 200 nmol/L, and 2000 nmol/L as test wells, with the same volumes as the original culture solutions.
• 1) The cells were collected, resuspended in a PBS balanced salt solution, and counted; and the cells were mixed with the 3D hydrogel stock solution and prepared into hydrogel cell suspensions with proper density. • 2) The 3D hydrogel cell suspension (5 × 10^^4 cells) was added to each well in 96-well cell culture plates with low surface adsorption, and the plates were incubated at 37 °C with 5% CO2 for 20 min. • 3) The complete culture medium containing the compound prepared in 1.2 with an equal volume to that of the cell suspension in step 2 was added to the 96-well cell culture plate. • 4) The cells were cultured at 37 °C in a 5% CO2 incubator for 96 h.
• 1) The complete culture medium in the upper layer above the hydrogel was pipetted from each well of the 96-well cell culture plate with a vacuum pump or a manual pipette with careful processing to avoid breaking the hydrogel lower layer. • 2) The complete culture medium containing the CCK-8 substrate with an equal volume to that of the original hydrogel was added to each well. • 3) The plate was cultured at 37 °C with 5% CO2 for 1 h. • 4) The 96-well cell culture plate was placed in a microplate reader, and the values of A450 and A630 were separately detected.
Data analysis: The relative inhibitory level was analyzed by using Excel software, and the survival rates of cells under different compound culture conditions were obtained; [formula]
High-reading control well: cells + dimethylsulfoxide; background well: cell-free hydrogel. Table 7. Cell proliferation inhibitory activity of some of example compounds

T1 sequence (Q92794 whole entry): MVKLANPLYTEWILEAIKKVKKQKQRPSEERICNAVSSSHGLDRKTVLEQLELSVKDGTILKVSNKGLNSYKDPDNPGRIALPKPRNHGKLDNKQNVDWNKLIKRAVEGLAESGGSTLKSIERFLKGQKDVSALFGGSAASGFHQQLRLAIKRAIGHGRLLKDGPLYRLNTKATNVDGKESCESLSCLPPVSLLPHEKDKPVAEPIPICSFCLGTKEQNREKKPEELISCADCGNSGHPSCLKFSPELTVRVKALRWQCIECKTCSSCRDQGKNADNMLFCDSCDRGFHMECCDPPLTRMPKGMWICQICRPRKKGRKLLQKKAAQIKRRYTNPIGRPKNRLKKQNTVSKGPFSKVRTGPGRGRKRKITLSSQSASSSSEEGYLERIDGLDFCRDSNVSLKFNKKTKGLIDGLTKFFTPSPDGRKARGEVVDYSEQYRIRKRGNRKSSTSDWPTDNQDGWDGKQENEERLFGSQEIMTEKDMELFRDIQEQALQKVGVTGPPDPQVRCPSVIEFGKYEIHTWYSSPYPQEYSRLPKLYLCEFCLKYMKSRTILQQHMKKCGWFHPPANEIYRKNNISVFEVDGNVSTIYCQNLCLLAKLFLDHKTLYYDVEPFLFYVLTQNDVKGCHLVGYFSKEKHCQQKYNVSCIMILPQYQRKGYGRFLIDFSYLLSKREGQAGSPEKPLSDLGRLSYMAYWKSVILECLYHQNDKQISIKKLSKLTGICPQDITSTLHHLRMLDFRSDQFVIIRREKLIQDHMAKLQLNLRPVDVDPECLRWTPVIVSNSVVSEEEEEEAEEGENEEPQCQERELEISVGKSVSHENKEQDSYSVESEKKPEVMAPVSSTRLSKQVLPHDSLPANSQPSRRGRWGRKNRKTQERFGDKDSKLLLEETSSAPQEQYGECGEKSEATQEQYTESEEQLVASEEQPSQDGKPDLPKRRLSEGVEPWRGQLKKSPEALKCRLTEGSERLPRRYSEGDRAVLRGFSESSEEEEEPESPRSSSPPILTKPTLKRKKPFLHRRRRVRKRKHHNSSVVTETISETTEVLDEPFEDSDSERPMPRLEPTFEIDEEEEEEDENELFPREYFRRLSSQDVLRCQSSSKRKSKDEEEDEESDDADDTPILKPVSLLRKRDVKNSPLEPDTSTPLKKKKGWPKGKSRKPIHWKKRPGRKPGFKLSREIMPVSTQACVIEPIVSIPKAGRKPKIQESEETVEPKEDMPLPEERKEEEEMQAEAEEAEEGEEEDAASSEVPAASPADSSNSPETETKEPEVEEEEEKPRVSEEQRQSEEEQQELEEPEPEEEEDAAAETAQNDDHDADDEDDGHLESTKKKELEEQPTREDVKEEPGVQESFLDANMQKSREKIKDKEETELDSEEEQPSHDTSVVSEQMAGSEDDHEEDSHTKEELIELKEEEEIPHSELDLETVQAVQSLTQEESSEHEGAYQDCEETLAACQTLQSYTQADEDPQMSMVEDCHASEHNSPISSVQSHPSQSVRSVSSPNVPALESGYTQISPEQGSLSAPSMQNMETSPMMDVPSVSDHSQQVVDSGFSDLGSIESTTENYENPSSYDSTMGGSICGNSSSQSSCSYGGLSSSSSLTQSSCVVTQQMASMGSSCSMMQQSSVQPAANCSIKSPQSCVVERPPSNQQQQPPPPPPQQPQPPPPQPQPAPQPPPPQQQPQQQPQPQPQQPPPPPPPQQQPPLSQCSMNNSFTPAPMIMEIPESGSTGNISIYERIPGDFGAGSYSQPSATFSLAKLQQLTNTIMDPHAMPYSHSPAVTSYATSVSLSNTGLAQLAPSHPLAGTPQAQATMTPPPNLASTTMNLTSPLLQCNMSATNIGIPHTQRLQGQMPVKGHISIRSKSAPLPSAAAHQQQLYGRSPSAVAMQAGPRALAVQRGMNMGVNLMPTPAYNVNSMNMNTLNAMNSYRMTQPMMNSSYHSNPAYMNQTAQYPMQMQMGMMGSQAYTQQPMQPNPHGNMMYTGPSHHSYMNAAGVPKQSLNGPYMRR

half-life [2] [h]	Compound	fraction unbound at 6 h, 1 µM [1]	AUC(0-inf) [2] [µg·h/mL]	Cmax [2] [ng/mL]	Tmax [2] [h]	AUC(0-t) [2] [µg·h/mL]	fraction unbound at 6 h, 1 µM [3]	fraction unbound at 6 h, 1 µM [4]	IC50 [5] [nM]	fraction unbound at 6 h, 1 µM [6]	viability at 0.0001 µM [7] [%]	viability at 0.001 µM [7] [%]	viability at 0.01 µM [7] [%]	viability at 0.1 µM [7] [%]	viability at 1 µM [7] [%]
	COc1cc2c(cc1S(=O)(=O)Nc1noc3cc(Cn4cccn4)nc(OC)c13)CCO2 [Example 60, N-(6-((1H-Pyrazol-1-yl)methyl)-4-methoxyisoxazolo[4,5-c]pyridin-3-yl)-6-methoxy-2,3-dihvdrobenzofuran-5-sulfonamide]	0.0345	26.7	2310	2.67	26.2	0.0175	0.0358	1.01	0.0516					
	COc1cc2ccoc2cc1S(=O)(=O)Nc1noc2cc(Cn3cccn3)nc(OC)c12 [Example 44, N-(6-((1H-Pyrazol-1-yl)methyl)-4-methoxyisoxazolo[4,5-c]pyridin-3-yl)-5-methoxybenzofuran-6-sulfonamide]	0.0023					0.0149	0.048	8.28	0.0176					
24.6	COc1nc(Cn2cccn2)cc2onc(NS(=O)(=O)c3cccc4c3ccn4C)c12 [Example 6, N-(6-((1H-Pyrazol-1-yl)methyl)-4-methoxyisoxazolo[4,5-c]pyridin-3-yl)-1-methyl-1H-indole-4-sulfonamide]		1300	31600	0.33	502			3.11		74	66	45	38	25
	COc1ccc2c(c1S(=O)(=O)Nc1noc3cc(Cn4cccn4)nc(OC)c13)CCCC2 [Example 3]								1.76		71	55	43	40	29
	COc1cc2cccnc2cc1S(=O)(=O)Nc1noc2cc(Cn3cccn3)nc(OC)c12 [Example 75, N-(6-((1H-Pyrazol-1-yl)methyl)-4-methoxyisoxazolo[4,5-c]pyridin-3-yl)-6-methoxyquinoline-7-sulfonamide]		30.6	10800	0.25	30.6	0.0091	0.0163	2.41						
	COc1cc2c(cc1S(=O)(=O)Nc1noc3cc(Cn4cccn4)nc(OC)c13)OCO2 [Example 57, N-(6-((1H-Pyrazol-1-yl)methyl)-4-methoxyisoxazolo[4,5-c]pyridin-3-yl)-6-methoxy-1,3-benzodioxole-5-sulfonamide]						0.0264	0.0565	0.95						
	COc1ccc2occc2c1S(=O)(=O)Nc1noc2cc(Cn3cccn3)nc(OC)c12 [Example 45, N-(6-((1H-Pyrazol-1-yl)methyl)-4-methoxyisoxazolo[4,5-c]pyridin-3-yl)-5-methoxybenzofuran-4-sulfonamide]						0.0066	0.0145	9.45						
	COc1nc(Cn2cccn2)cc2onc(NS(=O)(=O)c3cccc4c3OCO4)c12 [Example 28, N-(6-((1H-Pyrazol-1-yl)methyl)-4-methoxyisoxazolo[4,5-c]pyridin-3-yl)-1,3-benzodioxole-4-sulfonamide]						0.0086	0.0205	3.55						
	COc1nc(Cn2cccn2)cc2onc(NS(=O)(=O)c3cccc4c3OCC4)c12 [Example 1, N-(6-((1H-pyrazol-1-yl)methyl)-4-methoxyisoxazolo[4,5-c]pyridin-3-yl)-2,3-dihydrobenzofuran-7-sulfonamide]								7.33		95	80	54	40	30
